From patent EP3860599B1, “(+)-ALPHA-DIHYDROTETRABENAZINE DOSAGE REGIMEN FOR TREATING MOVEMENT DISORDERS” (Adeptio Pharmaceuticals Limited, priority 2018, dated 2020)
Read-outs that look alike come from different tables or passages of the source.

Assays:
Type in all cases: in vivo
[1] = test system: non-amphetamine induced rats; experiment: Open field locomotor activity test in rats without amphetamine induction (Example 2, Study 3); settings: 2.5 mg/kg or 5 mg/kg
Method: All animal experiments were carried out according to the National Institute of Health (NIH) guidelines for the care and use of laboratory animals, and approved by the National Animal Experiment Board, Finland. Male CD (Charles River Laboratories, Germany) at weight range of 200-250 g (165-200 g upon arrival) were used for the experiments. Animals were housed at a standard temperature (22 ± 1°C) and in a light-controlled environment (lights on from 7 am to 8 pm) with ad libitum access to food and water.
Locomotor activity of the rats was tested in open field arena. The open field test was performed during the rat light cycle and under a normal lighting evenly distributed to the test chambers. The paths of the rats were recorded by activity monitor (Med. Associates Inc.).
Dosing the vehicle, vehicle-amphetamine, (+)-α-DHTBZ or risperidone was done prior to LMA test. The rats were placed in the centre of the arena, and the path was recorded for 60 minutes.
Animals were grouped as follows: • Group 1: 10 rats treated with Vehicle • Group 2: 10 rats treated with (+)-α-DHTBZ 2.5 mg/kg • Group 3: 10 rats treated with (+)-α-DHTBZ 5 mg/kg • Group 4: 10 rats treated with risperidone 1 mg/kg

[2] = Plasma concentrations after oral dosing (solution in apple juice) of human volunteers, Example 1A; settings: for concentration at 1 h / concentration at 1.5 h / concentration at 2 h / concentration at 3 h / concentration at 0.5 h: human, plasma, po; for concentration at 0.5 h / plasma concentrations: 0.5 h
Method: (+)-α-Dihydrotetrabenazine in defined amounts was administered by oral dosing (as a solution in apple juice) to six human volunteers. […] At 60 minutes after drug administration, PET scans were initiated and these were stopped at 120 minutes after drug administration. The experiment was carried out at dosages of 7.5 mg, 15 mg and 22.5 mg. […]

[3] = Plasma concentrations up to 7 hours after oral dosing of human volunteers, Example 1B; settings: 7.5 mg
Method: Volunteers 1 and 2 were the same as volunteers 1 and 2 in Example 1A described above. […] In addition, in all volunteers PET scans were initiated at 6 hours after drug administration and these were stopped at 7 hours after drug administration. […]

[4] = 7.5 mg, subject 1 (112 kg), 7.5 mg oral
[5] = 7.5 mg, subject 2 (76 kg), 7.5 mg oral
[6] = 7.5 mg, subject 3 (129 kg), 7.5 mg oral
[7] = 7.5 mg, subject 4 (59 kg), 7.5 mg oral
[8] = 7.5 mg, subject 5 (91 kg), 7.5 mg oral
[9] = 7.5 mg, subject 6 (68 kg), 7.5 mg oral
[10] = 15 mg, subject 1 (112 kg), 15 mg oral
[11] = 15 mg, subject 2 (76 kg), 15 mg oral
[12] = 15 mg, subject 3 (129 kg), 15 mg oral
[13] = 15 mg, subject 4 (59 kg), 15 mg oral
[14] = 15 mg, subject 5 (91 kg), 15 mg oral
[15] = 15 mg, subject 6 (68 kg), 15 mg oral
[16] = 22.5 mg, subject 1 (112 kg), 22.5 mg oral
[17] = 22.5 mg, subject 2 (76 kg), 22.5 mg oral
[18] = 22.5 mg, subject 3 (129 kg), 22.5 mg oral
[19] = 22.5 mg, subject 5 (91 kg), 22.5 mg oral
[20] = 22.5 mg, subject 6 (68 kg), 22.5 mg oral
[21] = po, Example 1B subject 1 (112 kg), 7.5 mg oral
[22] = po, Example 1B subject 2 (76 kg), 7.5 mg oral
[23] = po, Example 1B subject 3 (76 kg), 7.5 mg oral
[24] = po, Example 1B subject 4 (95 kg), 7.5 mg oral
[25] = po, Example 1B subject 5 (99 kg), 7.5 mg oral
[26] = po, Example 1B subject 6 (107 kg), 7.5 mg oral

## COc1cc2c(cc1OC)[C@H]1C[C@@H](O)[C@H](CC(C)C)CN1CC2 [(+)-α-dihydrotetrabenazine, (R,R,R)-3-isobutyl-9,10-dimethyloxy-1,3,4,5,7,11b-hexahydro-2H-pyrido[2,1-a]isoquinolin-2-ol]
[1]
  stereotypic behaviour versus rats treated with the vehicle: comparable
  total movement versus rats treated with the vehicle: comparable
[2]; [4]
  concentration at 1 h: 0.94 ng/mL
  concentration at 1.5 h: 2.39 ng/mL
  concentration at 2 h: 2.44 ng/mL
  concentration at 3 h: 3.01 ng/mL
[2]; [5]
  concentration at 0.5 h: 0.531 ng/mL
  concentration at 1 h: 13.7 ng/mL
  concentration at 1.5 h: 10.8 ng/mL
  concentration at 2 h: 14 ng/mL
  concentration at 3 h: 22.2 ng/mL
[2]; [6]
  concentration at 0.5 h: 0.216 ng/mL
  concentration at 1 h: 4.35 ng/mL
  concentration at 1.5 h: 6.91 ng/mL
  concentration at 2 h: 5.03 ng/mL
  concentration at 3 h: 6.96 ng/mL
[2]; [7]
  concentration at 0.5 h: 8.43 ng/mL
  concentration at 1 h: 15 ng/mL
  concentration at 1.5 h: 20.7 ng/mL
  concentration at 2 h: 17.6 ng/mL
  concentration at 3 h: 19.6 ng/mL
[2]; [8]
  concentration at 0.5 h: 6.68 ng/mL
  concentration at 1 h: 9.8 ng/mL
  concentration at 1.5 h: 13.5 ng/mL
  concentration at 2 h: 10.7 ng/mL
  concentration at 3 h: 11.2 ng/mL
[2]; [9]
  concentration at 1 h: 3.77 ng/mL
  concentration at 1.5 h: 3.06 ng/mL
  concentration at 2 h: 4.33 ng/mL
  concentration at 3 h: 9.18 ng/mL
[2]; [10]
  concentration at 0.5 h: 4.02 ng/mL
  concentration at 1 h: 11.1 ng/mL
  concentration at 1.5 h: 10.7 ng/mL
  concentration at 2 h: 10.2 ng/mL
  concentration at 3 h: 10.6 ng/mL
[2]; [11]
  concentration at 0.5 h: 7.99 ng/mL
  concentration at 1 h: 22.8 ng/mL
  concentration at 1.5 h: 46.4 ng/mL
  concentration at 2 h: 35.7 ng/mL
  concentration at 3 h: 46.5 ng/mL
[2]; [12]
  concentration at 0.5 h: 1.2 ng/mL
  concentration at 1 h: 14.3 ng/mL
  concentration at 1.5 h: 17.9 ng/mL
  concentration at 2 h: 12 ng/mL
  concentration at 3 h: 18.2 ng/mL
[2]; [13]
  concentration at 0.5 h: 26.7 ng/mL
  concentration at 1 h: 53.8 ng/mL
  concentration at 1.5 h: 42.5 ng/mL
  concentration at 2 h: 53.3 ng/mL
  concentration at 3 h: 60.2 ng/mL
[2]; [14]
  concentration at 0.5 h: 15.6 ng/mL
  concentration at 1 h: 34.2 ng/mL
  concentration at 1.5 h: 27.1 ng/mL
  concentration at 2 h: 31.8 ng/mL
  concentration at 3 h: 27.1 ng/mL
[2]; [15]
  concentration at 0.5 h: 5.41 ng/mL
  concentration at 1 h: 10.6 ng/mL
  concentration at 1.5 h: 16.1 ng/mL
  concentration at 2 h: 17.4 ng/mL
  concentration at 3 h: 14.9 ng/mL
[2]; [16]
  concentration at 0.5 h: 9.61 ng/mL
  concentration at 1 h: 18 ng/mL
  concentration at 1.5 h: 16.8 ng/mL
  concentration at 2 h: 14.9 ng/mL
  concentration at 3 h: 13.2 ng/mL
[2]; [17]
  concentration at 0.5 h: 5.23 ng/mL
  concentration at 1 h: 21.8 ng/mL
  concentration at 1.5 h: 36.2 ng/mL
  concentration at 2 h: 40.2 ng/mL
  concentration at 3 h: 51.8 ng/mL
[2]; [18]
  concentration at 0.5 h: 9.04 ng/mL
  concentration at 1 h: 34.7 ng/mL
  concentration at 1.5 h: 29.8 ng/mL
  concentration at 2 h: 26.3 ng/mL
  concentration at 3 h: 17.3 ng/mL
[2]; [19]
  concentration at 0.5 h: 55.3 ng/mL
  concentration at 1 h: 45.1 ng/mL
  concentration at 1.5 h: 46.2 ng/mL
  concentration at 2 h: 41.9 ng/mL
  concentration at 3 h: 42.5 ng/mL
[2]; [20]
  concentration at 0.5 h: 5.58 ng/mL
  concentration at 1 h: 8.01 ng/mL
  concentration at 1.5 h: 5.87 ng/mL
  concentration at 2 h: 12.5 ng/mL
  concentration at 3 h: 18.7 ng/mL
[2]; subject 1 (112 kg), 7.5 mg oral
  plasma concentrations: BLQ
[2]; subject 6 (68 kg), 7.5 mg oral
  plasma concentrations: BLQ
[3]; oral, after 6 hours following administration of 7.5mg, read-out: blood plasma concentrations
  concentration at 6 h: < 15 ng/mL
[3]; [21]
  concentration at 2 h: 8.7 ng/mL
  concentration at 4 h: 6.01 ng/mL
  concentration at 7 h: 3.65 ng/mL
[3]; po, Example 1B subject 1 (112 kg), 7.5 mg oral, 6 h, read-out: plasma concentrations
  concentration at 6 h: 4.54 ng/mL
[3]; [22]
  concentration at 2 h: 11.7 ng/mL
  concentration at 4 h: 17.5 ng/mL
  concentration at 7 h: 11.6 ng/mL
[3]; po, Example 1B subject 2 (76 kg), 7.5 mg oral, 6 h, read-out: plasma concentrations
  concentration at 6 h: 13.4 ng/mL
[3]; [23]
  concentration at 2 h: 12.8 ng/mL
  concentration at 4 h: 7.92 ng/mL
  concentration at 7 h: 4.84 ng/mL
[3]; po, Example 1B subject 3 (76 kg), 7.5 mg oral, 6 h, read-out: plasma concentrations
  concentration at 6 h: 5.57 ng/mL
[3]; [24]
  concentration at 1 h: 21.4 ng/mL
  concentration at 2 h: 13.9 ng/mL
  concentration at 3 h: 10.6 ng/mL
  concentration at 4 h: 7.81 ng/mL
  concentration at 5 h: 6.59 ng/mL
  concentration at 7 h: 4.91 ng/mL
[3]; po, Example 1B subject 4 (95 kg), 7.5 mg oral, 6 h, read-out: plasma concentrations
  concentration at 6 h: 4.92 ng/mL
[3]; [25]
  concentration at 1 h: 5.64 ng/mL
  concentration at 2 h: 7.59 ng/mL
  concentration at 3 h: 5.84 ng/mL
  concentration at 4 h: 4.58 ng/mL
  concentration at 5 h: 3.66 ng/mL
  concentration at 7 h: 2.47 ng/mL
[3]; po, Example 1B subject 5 (99 kg), 7.5 mg oral, 6 h, read-out: plasma concentrations
  concentration at 6 h: 3.35 ng/mL
[3]; [26]
  concentration at 1 h: 4.86 ng/mL
  concentration at 2 h: 6.3 ng/mL
  concentration at 3 h: 6.69 ng/mL
  concentration at 4 h: 5.61 ng/mL
  concentration at 5 h: 5.19 ng/mL
  concentration at 7 h: 3.36 ng/mL
[3]; po, Example 1B subject 6 (107 kg), 7.5 mg oral, 6 h, read-out: plasma concentrations
  concentration at 6 h: 4.44 ng/mL
